Measurements taken from publication PMC6204601, “In Vivo Selectivity and Localization of Reactive Oxygen Species (ROS) Induction by Osmium Anticancer Complexes That Circumvent Platinum Resistance” (Journal of Medicinal Chemistry, 2018).
Where two headings read alike, the source gives them in different places.

How the values were obtained:
[1] = test system: Singapore wild-type zebrafish embryos; type: in vivo, Danio rerio; conditions: zebrafish embryos, 96 h exposure; read-out: LC50 (Danio rerio) SG-WT
Protocol: In vivo biological studies […]
wild-type zebrafish (SGWT) embryos (< 5 dpf). All animals were maintained in accordance with ASPA […]
maintained. Light cycle: 14 hours day, 10 hours night.
1 L breeding tank. Pairs were set up the previous evening. Males and females were separated by a divider. The divider was removed around 9am (dawn). Embryos were collected and placed into petri dishes with fresh egg water. […]

[2] = test system: Tubingen wild-type zebrafish embryos; assay: Zebrafish embryo toxicity (FET) test, TU-WT; type: in vivo; conditions: 96 h exposure, read-out: LC50 (Danio rerio) TU-WT
[3] = test system: AB wild-type zebrafish embryos; type: in vivo; conditions: 96 h exposure, read-out: LC50 (Danio rerio) AB-WT
[4] = test system: HCT116p21-/- P21-knockout colorectal carcinoma cells; assay: Sulforhodamine B antiproliferative assay, HCT116p21-/-; type: cell-based, human; conditions: 24 h drug exposure + 72 h recovery, SRB, read-out: Antiproliferative activity (IC50) HCT116p21-/- Colon
[5] = test system: A2780Cis cisplatin-resistant ovarian carcinoma cells; assay: Sulforhodamine B antiproliferative assay, A2780Cis; type: cell-based, human; conditions: 24 h drug exposure + 72 h recovery, SRB
[6] = test system: MRC5 human lung fibroblasts; assay: Sulforhodamine B antiproliferative assay, MRC5; type: cell-based; conditions: 24 h drug exposure + 72 h recovery, SRB; non-cancer fibroblasts
Protocol: (§1) In vitro biological studies
(§2) Sulforhodamine B cell viability colorimetric assay.
(§3) by ICP-OES analysis for metal content).
(§4) 72 h recovery time (310 K).
(§5) using slowly-running tap water and air dried.
(§6) Data were processed using Microsoft Excel
IC50 values (concentrations at which […]
After this time, cells were […]

[7] = test system: A2780 ovarian carcinoma cells; assay: Sulforhodamine B antiproliferative assay, A2780; type: cell-based, human; conditions: SRB
[8] = test system: HCT116Ox oxaliplatin-resistant colorectal carcinoma cells; assay: Sulforhodamine B antiproliferative assay, HCT116Ox; type: cell-based, human; conditions: 24 h drug exposure + 72 h recovery, SRB, read-out: Antiproliferative activity (IC50) HCT116Ox Colon
[9] = test system: HCT116 colorectal carcinoma cells; assay: Sulforhodamine B antiproliferative assay, HCT116; type: cell-based, human; conditions: 24 h drug exposure + 72 h recovery, SRB; read-out: Antiproliferative activity (IC50) HCT116 Colon
[10] = test system: HCT116p53-/- P53-knockout colorectal carcinoma cells; assay: Sulforhodamine B antiproliferative assay, HCT116p53-/-; type: cell-based, human; conditions: 24 h drug exposure + 72 h recovery, SRB, read-out: Antiproliferative activity (IC50) HCT116p53-/- Colon
[11] = test system: A549 lung carcinoma cells; assay: Sulforhodamine B antiproliferative assay, A549; type: cell-based, human; conditions: 24 h drug exposure + 72 h recovery, SRB
[12] = test system: HOF human ovarian fibroblasts; assay: Sulforhodamine B antiproliferative assay, HOF; type: cell-based; conditions: 24 h drug exposure + 72 h recovery, SRB; non-cancer fibroblasts
Protocol: as §1, §2, §3, §4, §5, §6

[13] = test system: HOF human ovarian fibroblasts; assay: ROS/superoxide detection by flow cytometry, HOF; conditions: 24 h, 1.0 × IC50 (pyocyanin positive control 0.1 mM); for % Population Q2 FL1-H+ / FL2-H+: ROS and superoxide; for % Population Q1 FL1-H- / FL2-H+: superoxide only; for % Population Q3 FL1-H+ / FL2-H-: total ROS only
Protocol: (§7) Reactive oxygen species (ROS) determination using flow cytometry. The generation of ROS and
(§8) superoxide in A2780 ovarian cancer cells was evaluated using the ROS/Superoxide detection kit (Enzo
(§9) Life Sciences) following the manufacturer’s protocol.
(§10) cells per well, and incubated for 24 h (310 K). After this time, cells were exposed to equipotent
The pellets were re-suspended in 500
(§11) μL PBS and stained with green fluorescent reagent for total ROS reading in the FL1-green channel (2
(§12) μL) and orange fluorescent reagent for superoxide reading in the FL2-red channel (2 μL). Positive
(§13) control samples were treated with pyocyanin (5 μL, 30 min). Single stained positive control samples
(§14) were used for compensation purposes. Data were obtained using a Becton Dickson FACScan Flow
(§15) Cytometer and processed using FlowJo V10 for Windows.

A2780 cancer cells = assay: ROS/superoxide detection by flow cytometry, A2780; conditions: A2780, 24 h, 1.0 × IC50 (pyocyanin positive control 0.1 mM); for % Population Q2 FL1-H+ / FL2-H+: ROS and superoxide; for % Population Q1 FL1-H- / FL2-H+: superoxide only; for % Population Q3 FL1-H+ / FL2-H-: total ROS only
Protocol: as §7, §8, §9, §10
The pellets were re-suspended in 500
as §11, §12, §13, §14, §15

[14] = CV vs Ag/AgCl, 100 mV/s, 10^–3 M, CH3CN; electrochemically reversible
[15] = 24 h drug exposure + 72 h recovery in drug-free medium, read-out: Antiproliferative activity (IC50) A2780 Ovarian

Compound | LC50 [1] [µM] | LC50 [2] [µM] | LC50 [3] [µM] | IC50 [4] [µM] | IC50 [5] [µM] | IC50 [6] [µM] | IC50 [7, 15] [nM] | IC50 [8] [µM] | IC50 [9] [µM] | IC50 [10] [µM] | IC50 [11] [µM] | IC50 [12] [µM] | other results
N.N.O=C([O-])C1(C(=O)[O-])CCC1.[Pt+2] [carboplatin, reference compound] | 5.7 ± 0.9 | 7.1 ± 0.7 | 10 ± 1 | – | – | – | – | – | – | – | – | – | –
Cc1ccc(S(=O)(=O)[N]2[Os][NH][C@H](c3ccccc3)[C@H]2c2ccccc2)cc1.c1ccc(-c2ccccc2)cc1 [Complex 7, [Os(biphenyl)(Ts-DPEN)]] | – | 3.3 ± 0.4 | 3.5 ± 0.8 | 90 ± 1 | 25.9 ± 0.7 | 15.1 ± 0.5 | 6500 ± 300 | 46.2 ± 0.7 | 26.1 ± 0.3 | 40 ± 6 | 22.4 ± 0.7 | 44 ± 1 | –
CN(C)c1ccc(N=Nc2ccccn2)cc1.Cc1ccc(C(C)C)cc1.F[P-](F)(F)(F)(F)F.[Cl][Os+] [Complex 9, [Os(Azpy-NMe2)(p-cymene)Cl]PF6] | 13.61 ± 0.09 | 12 ± 1 | 14 ± 2 | 4 ± 0.3 | 0.37 ± 0.03 | 7.1 ± 0.2 | 1800 ± 100 | 5.8 ± 0.7 | 21.9 ± 0.7 | 3.2 ± 0.3 | 36.6 ± 0.8 | 11.1 ± 0.9 | % Population Q4 FL1-H- / FL2-H- [13]: 15 ± 1%; % Population Q2 FL1-H+ / FL2-H+ [13]: 13.8 ± 0.1%; % Population Q1 FL1-H- / FL2-H+ [13]: 11.7 ± 0.8%; % Population Q3 FL1-H+ / FL2-H- [13]: 60 ± 2%; % Population Q4 FL1-H- / FL2-H- (A2780 cancer cells): 0 ± 0%; % Population Q2 FL1-H+ / FL2-H+ (A2780 cancer cells): 97.0 ± 0.2%; % Population Q1 FL1-H- / FL2-H+ (A2780 cancer cells): 0 ± 0%; % Population Q3 FL1-H+ / FL2-H- (A2780 cancer cells): 3.0 ± 0.2%
Cn1c2cccc(=O)c-2nc2ccccc21 [Pyocyanin, pyocyanin, reference compound] | – | – | – | – | – | – | – | – | – | – | – | – | % Population Q4 FL1-H- / FL2-H- [13]: 1.2 ± 0.5%; % Population Q2 FL1-H+ / FL2-H+ [13]: 90 ± 2%; % Population Q1 FL1-H- / FL2-H+ [13]: 8 ± 2%; % Population Q3 FL1-H+ / FL2-H- [13]: 1.2 ± 0.2%; % Population Q4 FL1-H- / FL2-H- (A2780 cancer cells): 0.02 ± 0.01%; % Population Q2 FL1-H+ / FL2-H+ (A2780 cancer cells): 99 ± 2%; % Population Q1 FL1-H- / FL2-H+ (A2780 cancer cells): 0.03 ± 0.02%; % Population Q3 FL1-H+ / FL2-H- (A2780 cancer cells): 0.00 ± 0.01%
[Os(p-cymene)(SRB-DPEN)] [Complex 6] | – | – | – | 43 ± 3 | 27.2 ± 0.4 | – | 18000 ± 3000 | 35 ± 1 | 40.6 ± 0.1 | 34 ± 3 | 16.8 ± 0.2 | – | –
Cc1ccc(C(C)C)cc1.O=S(=O)(c1ccccc1)[N]1[Os][NH][C@H](c2ccccc2)[C@H]1c1ccccc1 [Complex 5, [Os(p-cymene)(Bs-DPEN)]] | 0.8 ± 0.2 | 1.5 ± 0.3 | – | 54.3 ± 0.9 | 21 ± 1 | 31.3 ± 0.2 | 13500 ± 900 | 52 ± 0.8 | 49 ± 6 | 48 ± 2 | 26.3 ± 0.5 | 19.9 ± 0.9 | –
Cc1ccc(C(C)C)cc1.O=S(=O)(c1ccc(F)cc1)[N]1[Os][NH][C@H](c2ccccc2)[C@H]1c1ccccc1 [Complex 4, [Os(p-cymene)(Fb-DPEN)]] | 0.7 ± 0.2 | 1.5 ± 0.3 | 3 ± 0.5 | 70 ± 3 | 15 ± 2 | 35 ± 1 | 17000 ± 1000 | 54 ± 2 | 49 ± 3 | 39.4 ± 0.6 | 31.5 ± 0.4 | 48 ± 3 | –
CN(C)c1ccc(N=Nc2ccccn2)cc1.F[P-](F)(F)(F)(F)F.[Cl][Os+].c1ccc(-c2ccccc2)cc1 [Complex 11, [Os(Azpy-NMe2)(biphenyl)Cl]PF6] | 16.8 ± 0.8 | 15.8 ± 0.9 | 12 ± 1 | 67 ± 3 | 16.8 ± 0.2 | 16.9 ± 0.1 | 3900 ± 300 | 10 ± 0.9 | 7.2 ± 0.05 | 28 ± 1 | 20 ± 1 | 27 ± 2 | –
F[P-](F)(F)(F)(F)F.Oc1ccc(N=Nc2ccccn2)cc1.[I][Os+].c1ccc(-c2ccccc2)cc1 [Complex 13, [Os(Azpy-OH)(biphenyl)I]PF6] | 8 ± 0.1 | 7.2 ± 0.2 | 7.4 ± 0.2 | 0.3 ± 0.01 | 0.13 ± 0.02 | 0.22 ± 0.01 | – | 0.14 ± 0.01 | 0.15 ± 0.01 | 0.13 ± 0.01 | 0.52 ± 0.06 | 0.32 ± 0.09 | IC50 ([7]; 24 h drug exposure + 72 h recovery, value in nM, read-out: IC50 in A2780): 140 nM
CN(C)c1ccc(N=Nc2ccccn2)cc1.F[P-](F)(F)(F)(F)F.[I][Os+].c1ccc(-c2ccccc2)cc1 [Complex 12, [Os(Azpy-NMe2)(biphenyl)I]PF6] | 6.6 ± 0.4 | 6.5 ± 0.8 | 7.7 ± 0.1 | 0.33 ± 0.02 | 0.11 ± 0.01 | 0.42 ± 0.03 | 140 ± 10 | 0.33 ± 0.05 | 0.82 ± 0.09 | 0.39 ± 0.02 | 0.27 ± 0.03 | 0.35 ± 0.02 | First reduction step potential [14]: ca. −0.4 V
N.N.[Cl][Pt][Cl] [cisplatin, reference compound] | – | – | – | 9.2 ± 0.5 | 11.5 ± 0.2 | 13.5 ± 0.9 | 1200 | 23.4 ± 0.4 | 5.1 ± 0.3 | 36.7 | 3.2 ± 0.1 | – | –
Cc1ccc(S(=O)(=O)[N]2[Os][NH][C@H](c3ccccc3)[C@H]2c2ccccc2)cc1.c1ccc(-c2cccc(-c3ccccc3)c2)cc1 [Complex 8, [Os(terphenyl)(Ts-DPEN)]] | 0.7 ± 0.2 | – | – | – | 10.4 ± 0.5 | 9.7 ± 0.2 | 4400 ± 300 | – | 41.2 ± 0.7 | – | 25.5 ± 0.3 | 24.3 ± 0.4 | –
CS(=O)(=O)[N]1[Os][NH][C@H](c2ccccc2)[C@H]1c1ccccc1.Cc1ccc(C(C)C)cc1 [Complex 2, [Os(p-cymene)(Ms-DPEN)]] | 3.5 ± 0.4 | 2.8 ± 0.5 | 2.8 ± 0.6 | 71 ± 5 | 39.4 ± 0.6 | 26 ± 0.4 | 30000 ± 2000 | 56 ± 5 | 67 ± 1 | 56 ± 6 | 31 ± 1 | > 50 | –
Cc1ccc(C(C)C)cc1.[NH-]C(c1ccccc1)C([N-]S(=O)(=O)c1ccc([N+](=O)[O-])cc1)c1ccccc1.[Os+2] (stereo not drawn) [Complex 3, [Os(p-cymene)(Ns-DPEN)]] | 1.9 ± 0.3 | – | 3.9 ± 0.3 | 63 ± 4 | 21.1 ± 0.3 | 21.9 ± 0.7 | 19900 ± 500 | 64 ± 5 | 67 ± 1 | 53 ± 3 | 27 ± 2 | > 50 | –
